Laboratory results reported in PMC4433810 (European journal of medicinal chemistry, 2015).

Legend:
KB cells = assay: Folic acid; assay type: cell-based; settings: 25 μM of 11e, absence vs presence of folic acid (250 μM); p < 0.01
[1] = system: histone H4 acetylation (intracellular marker of HDAC1 inhibition) in KB cells; assay: Western blot analysis of histone H4 acetylation in KB cells; assay type: cell-based; settings: 24 h
[2] = system: tubulin acetylation (marker of HDAC6 activity) in KB cells; assay: Western blot analysis of tubulin acetylation in KB cells; assay type: cell-based; settings: 4 h, at IC50 doses and above
[3] = system: FR (−) lung cancer cell line A549; assay: Cell viability; assay type: cell-based
[4] = system: KB (oral carcinoma) cells, FR (+); assay: Cell viability; assay type: cell-based; settings: up to 100 μM
[5] = system: HeLa (cervical carcinoma) cells, FR (+); assay: Cell viability; assay type: cell-based; settings: up to 100 μM
HDAC8 = molecular target: T1, HDAC8 (Homo sapiens, UniProt Q9BY41); assay: SAMDI mass spectrometry HDAC activity assay, HDAC8; assay type: biochemical
T1 sequence (Q9BY41 1-377): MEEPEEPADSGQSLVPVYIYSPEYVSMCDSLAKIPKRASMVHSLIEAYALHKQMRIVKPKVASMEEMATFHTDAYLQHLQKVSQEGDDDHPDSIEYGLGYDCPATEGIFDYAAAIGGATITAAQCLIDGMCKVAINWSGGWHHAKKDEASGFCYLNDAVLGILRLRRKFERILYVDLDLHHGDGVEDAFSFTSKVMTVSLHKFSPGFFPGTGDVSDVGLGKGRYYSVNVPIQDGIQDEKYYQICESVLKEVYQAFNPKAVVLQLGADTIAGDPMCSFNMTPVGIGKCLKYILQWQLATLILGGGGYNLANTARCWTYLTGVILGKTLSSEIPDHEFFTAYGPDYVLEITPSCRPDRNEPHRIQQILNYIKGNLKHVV

HDAC1 = HDAC1 (Homo sapiens, UniProt Q13547); assay: SAMDI mass spectrometry HDAC activity assay, HDAC1; assay type: biochemical
Chain of HDAC1 (Q13547 whole entry): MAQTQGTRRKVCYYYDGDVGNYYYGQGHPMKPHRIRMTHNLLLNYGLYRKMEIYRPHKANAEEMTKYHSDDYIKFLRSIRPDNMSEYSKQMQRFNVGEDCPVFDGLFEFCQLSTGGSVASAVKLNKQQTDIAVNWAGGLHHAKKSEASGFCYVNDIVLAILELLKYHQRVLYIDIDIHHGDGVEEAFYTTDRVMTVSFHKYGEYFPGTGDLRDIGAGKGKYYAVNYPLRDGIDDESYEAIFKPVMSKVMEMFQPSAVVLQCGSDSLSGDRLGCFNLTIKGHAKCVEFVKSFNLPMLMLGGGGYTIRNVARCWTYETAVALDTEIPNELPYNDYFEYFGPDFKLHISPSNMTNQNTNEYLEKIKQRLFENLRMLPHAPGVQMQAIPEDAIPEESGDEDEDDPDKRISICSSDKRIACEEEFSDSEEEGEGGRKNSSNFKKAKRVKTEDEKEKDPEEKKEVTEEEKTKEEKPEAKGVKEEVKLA

HDAC6 = molecular target: T2, HDAC6 (Homo sapiens, UniProt Q9UBN7); assay: SAMDI mass spectrometry HDAC activity assay, HDAC6; assay type: biochemical
T2 sequence (Q9UBN7 1-1215): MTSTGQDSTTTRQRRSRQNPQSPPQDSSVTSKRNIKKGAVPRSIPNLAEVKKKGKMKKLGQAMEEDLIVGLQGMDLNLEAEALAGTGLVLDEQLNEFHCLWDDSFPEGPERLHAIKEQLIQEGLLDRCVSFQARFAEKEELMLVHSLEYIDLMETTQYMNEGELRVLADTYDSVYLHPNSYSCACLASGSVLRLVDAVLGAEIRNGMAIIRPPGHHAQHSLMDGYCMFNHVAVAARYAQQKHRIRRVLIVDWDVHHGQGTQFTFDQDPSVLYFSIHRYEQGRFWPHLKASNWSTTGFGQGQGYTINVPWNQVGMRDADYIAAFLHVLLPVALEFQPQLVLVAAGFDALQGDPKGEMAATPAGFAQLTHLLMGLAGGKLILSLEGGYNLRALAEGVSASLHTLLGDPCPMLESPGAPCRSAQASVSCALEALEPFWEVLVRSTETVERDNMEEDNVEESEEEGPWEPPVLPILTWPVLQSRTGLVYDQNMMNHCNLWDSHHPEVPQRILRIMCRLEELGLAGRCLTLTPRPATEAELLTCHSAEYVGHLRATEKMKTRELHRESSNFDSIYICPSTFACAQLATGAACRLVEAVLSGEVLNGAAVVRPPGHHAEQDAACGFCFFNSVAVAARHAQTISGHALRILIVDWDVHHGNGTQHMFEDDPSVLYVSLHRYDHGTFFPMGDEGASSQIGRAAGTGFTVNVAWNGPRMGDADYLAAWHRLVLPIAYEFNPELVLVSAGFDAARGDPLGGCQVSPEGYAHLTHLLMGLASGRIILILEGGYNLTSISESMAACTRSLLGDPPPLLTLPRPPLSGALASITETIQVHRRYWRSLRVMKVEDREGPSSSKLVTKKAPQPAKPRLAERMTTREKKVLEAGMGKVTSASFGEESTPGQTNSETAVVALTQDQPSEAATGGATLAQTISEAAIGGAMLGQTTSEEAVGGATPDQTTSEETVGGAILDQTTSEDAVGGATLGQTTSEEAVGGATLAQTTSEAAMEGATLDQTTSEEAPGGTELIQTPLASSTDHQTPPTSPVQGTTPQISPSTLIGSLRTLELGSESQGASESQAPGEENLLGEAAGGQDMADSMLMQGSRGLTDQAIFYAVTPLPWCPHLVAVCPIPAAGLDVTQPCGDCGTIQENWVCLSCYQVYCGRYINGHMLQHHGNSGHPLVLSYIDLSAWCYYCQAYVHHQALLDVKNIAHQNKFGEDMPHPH

[6] = SAHA 2 and 20μM, 11d 50 and 100μM, 11e 30 and 100μM

Compound: Nc1nc2ncc(CNc3ccc(C(=O)NCCCCCCCC(=O)NO)cc3)nc2c(=O)[nH]1 [11e, 4-(((2-Amino-4-oxo-3,4-dihydropteridin-6-yl)methyl)amino)-N-(8-(hydroxyamino)-8-oxooctyl)benzamide]
- Effect of folic acid on cytotoxicity (viability of KB cells) (KB cells): reduced the cytotoxicity
- Histone H4 acetylation [1, 6]: dose dependent increases in histone H4 acetylation
- Acetylated tubulin levels [2]: increase in acetylated tubulin levels
- Activity against A549 cells, in words [3]: inactive

Compound: Nc1nc2ncc(CNc3ccc(C(=O)NCCCCCCC(=O)NO)cc3)nc2c(=O)[nH]1 [11d, 4-(((2-Amino-4-oxo-3,4-dihydropteridin-6-yl)methyl)amino)-N-(7-(hydroxyamino)-7-oxoheptyl)benzamide]
- Histone H4 acetylation [1, 6]: dose dependent increases in histone H4 acetylation
- Acetylated tubulin levels [2]: increase in acetylated tubulin levels
- Activity against A549 cells, in words [3]: inactive

Compound: Nc1nc2ncc(CNc3ccc(C(=O)NO)cc3)nc2c(=O)[nH]1 [compound 7, 4-(((2-Amino-4-oxo-3,4-dihydropteridin-6-yl)methyl)amino)-N-hydroxybenzamide]
- Cytotoxicity to KB cells, in words [4]: not cytotoxic
- Cytotoxicity to HeLa cells, in words [5]: not cytotoxic
- Histone H4 acetylation ([1]; 100 μM, relative to the control): little effect on H4 acetylation

Compound: Nc1nc2ncc(CNc3ccc(C(=O)N[C@@H](CCC(=O)NO)C(=O)O)cc3)nc2c(=O)[nH]1 [compound 6, 2-(4-(((2-Amino-4-oxo-3,4-dihydropteridin-6-yl)methyl)amino)benzamido)-5-(hydroxyamino)-5-oxopentanoic acid]
- HDAC8 inhibition, in words (HDAC8): inactive
- HDAC1 inhibition, in words (HDAC1): inactive
- HDAC6 inhibition, in words (HDAC6): inactive

Compound: CN1CCc2c(c3ccccc3n2Cc2ccc(C(=O)NO)cc2)C1 [Tubastatin A, reference compound]
- Histone H4 acetylation ([1]; 14 μM): significant increase in H4 acetylation

Compound: O=C(CCCCCCC(=O)Nc1ccccc1)NO [SAHA, reference compound]
- Histone H4 acetylation [1, 6]: dose dependent increases in histone H4 acetylation
- Acetylated tubulin levels [2]: increase in acetylated tubulin levels
